From patent US12496281B2, “Compounds for prevention and treatment of hemorrhage and vasculature instability” (Abrexa Pharmaceuticals, Inc., priority 2020, dated 2025)

Key:
[1] = test system: suture-type transient middle cerebral artery occlusion (MCAO) model; experiment: Suture transient MCAO model, 2 h ischemia, reperfusion 24 h (Example 1); type: in vivo, Sprague Dawley rats; settings: for infarct volume (TTC staining) relative to placebo: 24 h after reperfusion
Protocol: In this model, J147 was administered i.v. at doses of 1 mg/kg, 10 mg/kg and 30 mg/kg of total body weight immediately after reperfusion (i.e., about 2 hours after ischemia onset). […] Maximum volume (iv., bolus)=5 ml/kg. (ip., bolus)=10 ml/kg. […] The Bederson scale is a global neurological assessment that was developed to measure neurological impairments following stroke. Tests include forelimb flexion, resistance to lateral push and circling behavior. In this case, a Bederson grading scale of 0-5 was used to assess behavioral deficits after reperfusion. This scoring scale is a simple way to reveal basic neurological deficits.

[2] = test system: eMCAO, 4 μm blood clot; experiment: J147 alone in embolic MCAO (eMCAO) model without tPA or reperfusion (Example 5); type: in vivo, SD rats; settings: J147 alone 1 mg/ml or 10 mg/ml i.v., or 30 mg/ml i.p. two hours after stroke onset; no tPA, no reperfusion; 24 hours after stroke
Protocol: In this example, an eMCAO experiment was performed to determine if J147 alone (i.e., without administration of TPA or other thrombolytic intervention) provided any therapeutic benefit for stroke in the absence of reperfusion caused by TPA.

[3] = test system: suture MCAO-induced ischemia followed by reperfusion; experiment: J147 dose-response, 2-hour suture MCAO followed by reperfusion, 72 h (Example 3); type: in vivo, SD rats
Protocol: Objective: […] Methods: […] J147 compound (1.0, 10, 30 mg/kg) and vehicle were administered at 2 hours after onset of ischemia (FIG. 5). Bederson score was examined prior to the sacrifice at 72 h after stroke. Infarct volumes in TTC-stained brain coronal sections were measured.

[4] = test system: neutrophil (MPO) infiltration; experiment: Immunostaining of brain neutrophil (MPO) infiltration after thromboembolic stroke; type: in vivo, rats; settings: poststroke; delayed tPA alone or with J147; n=3 animals per group
Protocol: (§1) Methods: At the indicated time point, animals were euthanized with CO2 and transcardially perfused with 200 mL ice-cold PBS (0.01 M, pH 7.4) followed by 4% paraformaldehyde (PFA). The brains were removed and post-fixed in 4% PFA solution for overnight at 4° C. Brain samples were then cryoprotected by immersion in 10%, 20%, and 30% gradient sucrose solutions for 48 h at 4° C. respectively. After that, the brains were embedded in optimal cutting temperature (OCT) compound. Coronal sections (15 um) were cut at 0.4 to 1.4 mm posterior to bragma using a cryostat and mounted on positively charged slides. Every twentieth coronal section for a total five sections was used for immunohistochemistry. The primary antibodies: IBa-1 (1:200, Wako), MPO (1:200, Abcam), MMP9 (1:100, R&D), EBA (endothelial barrier antigen, a marker for endothelium in the vessels, 1:500, Covance), fibrinogen (1:200, Dako), thrombocyte (1:200, lifespan) and PAI-1 (1:200, Novus Biologicals) were used. […]
(§2) For quantification, the number of immunoreactive vessels were counted in the ischemic boundary zone. All immunostaining data was analyzed by an investigator blinded to experimental groups using Image Pro plus software (version 5.1, Media Cybernetics, Inc.) and data are presented as the density of immunoreactive vessels relative to the imaged area (mm2) as described. Data were expressed as mean±standard error of the mean (SEM). […]

[5] = test system: thromboembolic middle cerebral artery occlusion (MCAO); experiment: J147+tPA expanded study: infarct volume, intracerebral hemorrhage, mortality (Example 4A); type: in vivo, SD rats
Protocol: Objective: To determine whether J147 can prevent tPA-associated brain hemorrhage and extend the treatment time window of tPA in a clinically relevant thromboembolic stroke model in rats. • J147 compound: Stock solution: 60 mg/ml DMSO, in 60 ul/vial, stored at −20° C. • Working solution: 3 mg/ml in 5% DMSO, 70% PEG200 and 25% normal saline, prepared prior to injection. • One vial stock solution was warmed at 37° C. and mixed with 1140 ul sterilized solution (PEG200: saline, 2.8:1). • Recombinant human tPA (Alteplase, 2.2 mg/vial): Reconstituted with 1.1 ml water (2 mg/ml). 10 mg/kg, 10% bonus injection, 90%30 min. via mini pump. A. Infarct Volume and Intracerebral Hemorrhage
Methods: Male SD rats (280-300 g) were subjected to thromboembolic middle cerebral artery occlusion (MCAO) and treated with saline at 4 hours, tPA (tissue-type plasminogen activator; 10 mg/kg, IV) at 4 hours, and combined J147 (10 mg/kg, IV) plus tPA at 4 hours after onset of ischemia. Bederson score was examined prior to the sacrifice at 72 h after stroke. Infarct volumes, brain hemorrhage, and animal mortality were measured.

[6] = test system: platelet-leukocyte aggregates; experiment: Flow cytometry of platelet-leukocyte aggregates in whole blood after stroke; type: in vivo; settings: whole blood at 24 hours after ischemia onset; vs saline-treated stroke rats; n=3 rats per group
Protocol: (§3) Elevated platelet activation and platelet-leukocyte interaction contribute importantly to pro-inflammatory and thrombotic events during ischemia-reperfusion injury after stroke. We used flow cytometry to analyze platelet activation and platelet-leukocyte aggregates in whole blood at 24 hours after ischemia onset (FIG. 9A).
(§4) Methods: Blood was drawn into a heparinized capillary tube via the retro-orbital plexus at 24 h after stroke. Whole blood was diluted 1:10 with Flow Cytometry Staining Buffer (eBioscience) containing rat Fc block anti-rat CD32. For evaluation of platelet activation, sample was co-stained with the FITC mouse anti-rat CD42d (1:200, RPM.4) for platelets and PE/Cy7 mouse anti-rat CD62P (1:100, RMP-1) for P-selectin expression. For detection of platelet-leukocyte aggregates (PLA) formation, samples were co-stained with FITC mouse anti-rat CD42d (1:200, RPM.4), PE mouse anti-rat granulocytes (1:100, RP-1), APC mouse anti-rat CD11b (1:50, WT.5) and PE/Cy7 mouse anti-rat CD45 (1:100, OX-1). Isotype-matched control antibodies were used to differentiate non-specific background signal from specific antibody signals. The samples were analyzed on the BD Accuri™ C6 flow cytometer.

[7] = test system: platelets; experiment: Double immunofluorescence of platelet (thrombocyte) accumulation in brain microvessels; type: in vivo; settings: stroke rats; delayed tPA alone or with J147
Protocol: as §1, §2

[8] = test system: microglia (Iba-1); experiment: Immunostaining of microglia (Iba-1) expansion after thromboembolic stroke; type: in vivo, rats; settings: poststroke; delayed tPA alone or with J147; n=3 animals per group
Protocol: as §1, §2

[9] = test system: fibrin/fibrinogen; experiment: Double immunofluorescence of intravascular fibrin/fibrinogen deposition in brain microvessels; type: in vivo; settings: stroke rats; delayed tPA alone or with J147
Protocol: as §1, §2

[10] = test system: MMP-9; experiment: Double immunohistochemistry for MMP-9 expression in the brain after thromboembolic stroke; type: in vivo, rats; settings: 24 hours after stroke; tPA at 4 h alone or with J147; n=3 animals per group
Protocol: MMPs, in particular MMP-9, play a critical role in the stroke-associated blood-brain barrier (BBB) disruption, hemorrhagic transformation and neuroinflammation after stroke. Double immunohistochemistry was performed to determine MMP-9 expression in the brain at 24 hours after stroke (FIG. 7A).
Methods: At the indicated time point, animals were euthanized with CO2 and transcardially perfused with 200 mL ice-cold PBS (0.01 M, pH 7.4) followed by 4% paraformaldehyde (PFA). The brains were removed and post-fixed in 4% PFA solution for overnight at 4° C. Brain samples were then cryoprotected by immersion in 10%, 20%, and 30% gradient sucrose solutions for 48 h at 4° C. respectively. After that, the brains were embedded in optimal cutting temperature (OCT) compound. Coronal sections (15 um) were cut at 0.4 to 1.4 mm posterior to bragma using a cryostat and mounted on positively charged slides. […]
as §2

[11] = test system: platelet P-selectin (CD62P); experiment: Flow cytometry of platelet activation (P-selectin) in whole blood after stroke; type: in vivo; settings: whole blood at 24 hours after ischemia onset; vs saline-treated stroke rats
Protocol: as §3, §4

[12] = J147 1.0, 10, 30 mg/kg at 2 hours after onset of ischemia, 72 h after stroke, dose-dependent, vs vehicle
[13] = tPA 10 mg/kg IV at 4 hours, alone or with J147 10 mg/kg IV, 72 h after stroke

Compound | infarct volume (TTC staining) relative to placebo ([1]; 1 mg/kg J147 iv) | infarct volume (TTC staining) relative to placebo ([1]; 10 mg/kg J147 iv) | infarct volume (TTC staining) relative to placebo ([1]; J147 intraperitoneally) | optimal effective dose ([1]; iv, immediately after reperfusion, doses tested 1, 10 and 30 mg/kg) [mg/kg] | protection from stroke (infarct volume, TTC staining) [2] | infarct volumes [3, 12] | neurological deficit (Bederson score) [3, 12] | effective optimal dose ([3]; treatment of acute ischemic stroke in rats, doses tested 1.0, 10, 30 mg/kg) [mg/kg] | neutrophil (MPO positive cells) infiltration into the brain parenchyma [4] | brain hemorrhage / hemorrhagic transformation [5, 13] | brain infarction / infarct volume [5, 13] | mortality rate ([5]; treatment at 4 h after onset of ischemia, log-rank test, saline 25%) [%] | Death (number of rats) ([5]; treatment at 4 h after onset of ischemia, tPA n = 22, J147 plus tPA n = 17, saline 3 of 12) | platelet-granulocyte (platelet-neutrophil) aggregates [6] | platelets deposited in downstream microvessels [7] | microglia expansion (number of Iba-1-positive cells) [8] | fibrin/fibrinogen deposited in downstream microvessels [9] | MMP-9 expression on individual cells and brain microvessels [10] | platelet activation (platelet P-selectin expression) [11]
COc1cccc(/C=N/N(C(=O)C(F)(F)F)c2ccc(C)cc2C)c1 [Compound J147] | insignificant reduction | large reduction | modest reduction | 10 | fails to provide any significant protection | significantly reduced | significantly reduced | 10 |  |  |  |  |  |  |  |  |  |  | 
tPA: Recombinant human tPA (Alteplase), tissue-type plasminogen activator; thrombolytic approved for the treatment of stroke |  |  |  |  |  |  |  |  | further augmented | worsened | did not decrease | 32 | 7 | no additional effect | markedly increased | no significant effect | markedly increased | further increased | no additional effect
